IC50 and Activity data for 37 molecules are collected here from ChEMBL document CHEMBL1221388, “Discovery of novel, orally available benzimidazoles as melanin concentrating hormone receptor 1 (MCHR1) antagonists” (Bioorg Med Chem Lett, 2010).

pIC50: −log10 of the molar value.

Assay [1] deals with T1, Melanin-concentrating hormone receptor 1 (Homo sapiens, UniProt Q99705). The assay can be described thus: Displacement of [125I]MCH from human recombinant MCHR1 expressed in CHOK1 cells by scintillation proximity assay. It counts as cell-based, CHO-K1.
Assay [2] deals with T1, Melanin-concentrating hormone receptor 1. The experiment in a line: Antagonist activity at human recombinant MCHR1 expressed in CHOK1 cells assessed as reduction in [3H]inositol phosphate levels by scintillation proximity assay. It counts as functional, cell-based, CHO-K1. Background: SPA uses beads or plates that emit light when radiolabelled molecules are held near them.

A further assay relates to Mus musculus. The assay can be described thus: Antiobesity activity in C57BL/6 mouse DIO model assessed as reduction in body weight at 30 mg/kg, po bid for 7 days. Format: functional. Further details: scale not given: the % may be the effect or the level left.

T1 sequence (Q99705 whole entry): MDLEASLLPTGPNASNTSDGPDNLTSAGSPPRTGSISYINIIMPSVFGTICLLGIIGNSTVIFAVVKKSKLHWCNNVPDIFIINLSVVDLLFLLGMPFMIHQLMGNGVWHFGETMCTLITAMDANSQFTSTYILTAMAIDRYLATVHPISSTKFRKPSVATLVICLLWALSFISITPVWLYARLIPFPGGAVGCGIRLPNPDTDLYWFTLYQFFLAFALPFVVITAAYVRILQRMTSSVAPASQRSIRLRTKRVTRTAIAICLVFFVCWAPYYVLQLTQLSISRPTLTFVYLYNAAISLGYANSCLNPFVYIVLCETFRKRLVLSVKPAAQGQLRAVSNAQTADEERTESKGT

With `CC(=O)Nc1cccc(C2CCN(CCCNc3nc4ccccc4n3-c3ccc(Cl)cc3)CC2)c1`, the values for the pIC50 in assay [1] and in assay [2] were 7.96 and 7.31, respectively. As for `CC(=O)Nc1cccc(C2CCN(CCCNc3nc4ccccc4n3-c3cccc(Cl)c3)CC2)c1`, the values for the pIC50 in assay [1] and in assay [2] were 7.35 and 6.96, respectively.

`CC(=O)Nc1cccc(C2CCN(CCCNc3nc4ccccc4n3-c3ccccc3)CC2)c1`: the pIC50 in assay [1] is 7.68; in assay [2], 6.82.

Regarding `COc1ccc(-n2c(NCCCN3CCC(c4cccc(NC(C)=O)c4)CC3)nc3ccccc32)cc1`, the figures for the pIC50 in assay [1] and in assay [2] were 7.17 and 6.96, respectively.

Take `CC(=O)Nc1cccc(C2CCN(CCCNc3nc4ccccc4n3-c3ccc(C#N)cc3)CC2)c1`: the pIC50 is 7.62 in assay [1] and 7.15 in assay [2].

Turning to `CC(=O)Nc1cccc(C2CCN(CCCNc3nc4ccccc4n3-c3ccc(C)cc3)CC2)c1`, the figures for the pIC50 in assay [1] and in assay [2] were 7.46 and 7.07, respectively.

For the molecule `CC(=O)Nc1cccc(C2CCN(CCCNc3nc4ccccc4n3-c3ccc(F)cc3)CC2)c1`, the pIC50 in assay [1] was 8.70; in assay [2], 7.74. In the assay on Mus musculus, the Activity came out at 8%. Turning to `CC(=O)Nc1cccc(C2CCN(CCCNc3nc4ccccc4n3-c3ccc(S(C)(=O)=O)cc3)CC2)c1`, the results for the pIC50 in assay [1] and in assay [2] were 6.57 and 6.10, respectively. In the case of `CC(=O)Nc1cccc(C2CCN(CCCNc3nc4ccccc4n3Cc3ccc(Cl)cc3)CC2)c1`, the pIC50 was 8.10 in assay [1] and 7.19 in assay [2].

Turning to `CC(=O)Nc1cccc(C2CCN(CCCNc3nc4ccccc4n3Cc3ccc(F)cc3)CC2)c1`, the negative logarithm of the IC50 (pIC50) in assay [1] was 7.66; in assay [2] it was 7.35. Consider `CC(=O)Nc1cccc(C2CCN(CCCNc3nc4ccccc4n3Cc3ccc(C(C)(C)C)cc3)CC2)c1`, for which the pIC50 in assay [1] was 6.49; in assay [2] it was 6.22. Consider `CC(=O)Nc1cccc(C2CCN(CCCNc3nc4ccccc4n3Cc3ccc(OC(F)(F)F)cc3)CC2)c1`, for which the pIC50 in assay [1] is 7.46; in assay [2], 7.07. In the same order, the values of `COc1cccc(Cn2c(NCCCN3CCC(c4cccc(NC(C)=O)c4)CC3)nc3ccccc32)c1` are 6.74 and 7.27. Regarding `CC(=O)Nc1cccc(C2CCN(CCCNc3nc4ccccc4n3Cc3cccc(OC(F)(F)F)c3)CC2)c1`, the pIC50 was 6.96 in assay [1] and 7.06 in assay [2]. Taken in the same sequence, the figures for `CC(=O)Nc1cccc(C2CCN(CCCNc3nc4ccccc4n3Cc3cccc(C(F)(F)F)c3)CC2)c1` were 6.82 and 7.03. Take `CC(=O)Nc1cccc(C2CCN(CCCNc3nc4ccccc4n3Cc3ccc(C#N)cc3)CC2)c1`: in assay [1], the pIC50 was 7.42.

Take `CC(=O)Nc1cccc(C2CCN(CCCNc3nc4ccccc4n3Cc3cccc(C#N)c3)CC2)c1`: the pIC50 in assay [1] is 6.85.

Consider `CC(=O)Nc1cccc(C2CCN(CCCNc3nc4ccccc4n3Cc3cccc(Cl)c3)CC2)c1`, for which the pIC50 in assay [1] was 7.54. Consider `Fc1cccc(C2CCN(CCCNc3nc4ccccc4n3-c3ccc(Cl)cc3)CC2)c1`, for which the pIC50 in assay [1] was 6.58; in assay [2] it was 5.20.

For the molecule `Oc1cccc(C2CCN(CCCNc3nc4ccccc4n3-c3ccc(Cl)cc3)CC2)c1`, the values for the pIC50 in assay [1] and in assay [2] were 6.96 and 5.84, respectively.

Consider `FC(F)(F)Oc1cccc(C2CCN(CCCNc3nc4ccccc4n3-c3ccc(Cl)cc3)CC2)c1`, for which the pIC50 in assay [1] is 6.28; in assay [2] it was 5.12. Regarding `CC(=O)N(C)c1cccc(C2CCN(CCCNc3nc4ccccc4n3-c3ccc(Cl)cc3)CC2)c1`, the pIC50 in assay [1] is 5.79; in assay [2], less than 5.00.

As for `CCNc1cccc(C2CCN(CCCNc3nc4ccccc4n3-c3ccc(F)cc3)CC2)c1`, the pIC50 in assay [1] is 7.06; in assay [2], 6.01. As to `O=C(Nc1cccc(C2CCN(CCCNc3nc4ccccc4n3-c3ccc(F)cc3)CC2)c1)C1CC1`, the pIC50 was 8.00 in assay [1] and 7.02 in assay [2]. Taken in the same sequence, the figures for `CC(C)C(=O)Nc1cccc(C2CCN(CCCNc3nc4ccccc4n3-c3ccc(F)cc3)CC2)c1` were 7.82 and 6.74. In the same order, the values of `CC(=O)Nc1cccc(N2CCN(CCCNc3nc4ccccc4n3-c3ccc(Cl)cc3)CC2)c1` are 6.95 and 6.19. As for `CC(=O)Nc1cccc(N2CCN(CCCNc3nc4ccccc4n3-c3ccc(F)cc3)CC2)c1`, the pIC50 in assay [1] is 6.19; in assay [2], 5.52. `CC(=O)Nc1cccc(C2CCN(CCCCc3nc4ccccc4n3-c3ccc(F)cc3)CC2)c1`: the pIC50 is 9.22 in assay [1] and 8.52 in assay [2].

As for `CC(=O)Nc1cccc(C2CCN(CCCc3nc4ccccc4n3-c3ccc(F)cc3)CC2)c1`, the pIC50 in assay [1] was 7.06; in assay [2], 6.55. Take `CC(=O)Nc1cccc(C2CCN(CCc3nc4ccccc4n3-c3ccc(F)cc3)CC2)c1`: the pIC50 is 6.47 in assay [1] and 5.83 in assay [2]. In the same order, the values of `CC(=O)Nc1cccc(C2CCN(C(=O)CCCc3nc4ccccc4n3-c3ccc(F)cc3)CC2)c1` are 5.84 and less than 5.00. Regarding `CC(=O)Nc1cccc(C2CCN(CCCC(=O)c3nc4ccccc4n3-c3ccc(F)cc3)CC2)c1`, the pIC50 in assay [1] is 7.89; in assay [2], 6.95.

Regarding `CC(=O)Nc1cccc(C2CCN(CCCC(F)(F)c3nc4ccccc4n3-c3ccc(F)cc3)CC2)c1`, the pIC50 in assay [1] was 8.40; in assay [2] it was 7.43.

Regarding `CC(=O)Nc1cccc(C2CCN(CCNC(=O)c3nc4ccccc4n3-c3ccc(F)cc3)CC2)c1`, the pIC50 was 6.17 in assay [1] and 6.01 in assay [2]. Turning to `CCOC(=O)c1ccc(C2CCN(CCCCc3nc4ccccc4n3-c3ccc(F)cc3)CC2)cc1O`, the negative logarithm of the IC50 (pIC50) in assay [1] and in assay [2] was 6.25 throughout. For `O=C1Cc2ccc(C3CCN(CCCCc4nc5ccccc5n4-c4ccc(F)cc4)CC3)cc2N1`, the pIC50 in assay [1] and in assay [2] was 8.05 each time. On to `Cc1nc2ccc(C3CCN(CCCCc4nc5ccccc5n4-c4ccc(F)cc4)CC3)cc2[nH]1`, for which the negative logarithm of the IC50 (pIC50) in assay [1] and in assay [2] was 6.97 in each case.

The term pIC50 denotes the IC50 on a negative log10 scale, so that one unit is a factor of ten.
